pIC50: −log10 of the molar value.

The source of these data is US11702422B2, “Imidazopyridazines as modulators of IL-17” (Janssen Pharmaceutica NV, priority 2020, dated 2023).

Experiment [1] has as its target IL-17A(FLAG-Tagged): IL-17RA(His-Tagged) (Homo sapiens, UniProt Q16552, K93Q). Briefly: IL-17A(FLAG-Tagged): IL-17RA(His-Tagged) Binding Disruption Eu-HTRF Assay. To be noted: IL-17A/IL-17RA binding disruption, simple average if tested more than once. In outline:
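IC50 comes from a one-site competition fit of the HTRF 665/620 nm ratio. Compound dilutions (2-fold, 22 points) were held 1 h rt with FLAG-tagged IL-17A dimer, then His-tagged IL-17RA plus Eu-cryptate anti-FLAG and D2 anti-His antibodies were added for 2 h rt.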

Experiment [2] deals with IL-17A-induced G-CSF production in human normal keratinocyte (NHK). Briefly: NHK Assay: IL-17A-induced G-CSF production in human normal keratinocytes. The format is cell-based. Conditions: 24 h, adult normal human keratinocytes, IL-17A 5 ng/mL, simple average if tested more than once. The method, boiled down:
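IL-17A (5 ng/mL final) was pre-incubated 1 h at rt with titrated compound and then added to adult normal human keratinocytes (5% FBS, 0.2% DMSO) for 24 h at 37° C. Supernatant G-CSF was measured by HTRF against a standard curve to derive IC50. Viability was checked by CellTiter-Glo.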

UniProt Q16552, sequence (Q16552 with tags, fused parts or gaps K93Q): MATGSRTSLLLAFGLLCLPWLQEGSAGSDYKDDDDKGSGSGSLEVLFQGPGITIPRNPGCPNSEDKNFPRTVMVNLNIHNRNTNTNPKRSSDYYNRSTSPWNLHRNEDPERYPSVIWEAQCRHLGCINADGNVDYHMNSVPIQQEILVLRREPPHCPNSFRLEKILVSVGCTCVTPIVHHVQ

As to `O=C(CC1CC(F)(F)C1)N[C@@H](c1cnn2cc([C@@H](NC(=O)c3nonc3C(F)F)C3CCC(F)(F)CC3)nc2c1)C1CC1` [Example 413, N—((S)-(7-((R)-Cyclopropyl(2-(3,3-difluorocyclobutyl)acetamido)methyl)imidazo[1,2-b]pyridazin-2-yl)(4,4-difluorocyclohexyl)methyl)-4-(difluoromethyl)-1,2,5-oxadiazole-3-carboxamide], the negative logarithm of the IC50 (pIC50) in experiment [1] was 7.21; in experiment [2] (Homo sapiens, Keratinocyte) it was 6.77.
Taken in the same sequence, the figures for `N#CC1([C@@H](NC(=O)C[C@H]2CC2(F)F)c2cnn3cc([C@@H](NC(=O)c4nonc4C4CC4)C4CCC(F)(F)CC4)nc3c2)CCC1` (single isomer, unassigned) [Example 448] were 7.46 and 7.92.
In the same order, the values of `Cc1nocc1C(=O)N[C@H](c1cn2ncc([C@H](NC(=O)CCC(F)(F)F)C3CC3)cc2n1)C1CCC(F)(F)CC1` [Example 79, N—((S)-(7-((R)-Cyclopropyl(4,4,4-trifluorobutanamido)methyl)imidazo[1,2-b]pyridazin-2-yl)(4,4-difluorocyclohexyl)methyl)-3-methylisoxazole-4-carboxamide] are 7.08 and 6.82.
With `O=C(CC1CC(F)(F)C1)NC(c1cnn2cc([C@@H](NC(=O)c3ccn(CCC(F)(F)F)n3)C3CCC(F)(F)CC3)nc2c1)C1CC1` (single isomer, unassigned) [Example 20, N—((S)-(7-((R*)-Cyclopropyl(2-(3,3-difluorocyclobutyl)acetamido)methyl)imidazo[1,2-b]pyridazin-2-yl)(4,4-difluorocyclohexyl)methyl)-1-(3,3,3-trifluoropropyl)-1H-pyrazole-3-carboxamide], the pIC50 in experiment [1] is 6.80; in experiment [2] (Homo sapiens, Keratinocyte), 6.19.
Take `Cc1nonc1C(=O)N[C@@H](CC(C)(C)C(F)(F)F)c1cn2ncc([C@H](NC(=O)CC3CC(F)(F)C3)C3CC3)cc2n1` [Example 544, N—((S)-1-(7-((R)-Cyclopropyl(2-(3,3-difluorocyclobutyl)acetamido)methyl)imidazo[1,2-b]pyridazin-2-yl)-4,4,4-trifluoro-3,3-dimethylbutyl)-4-methyl-1,2,5-oxadiazole-3-carboxamide]: the negative logarithm of the IC50 (pIC50) was 6.92 in experiment [1] and 6.62 in experiment [2] (Homo sapiens, Keratinocyte).
For `O=C(CC1CC(F)(F)C1)N[C@@H](c1cnn2cc([C@@H](NC(=O)c3conc3C3CC3)C3CCC(F)(F)CC3)nc2c1)C1CC1` [Example 125, 3-Cyclopropyl-N—((S)-(7-((R)-cyclopropyl(2-(3,3-difluorocyclobutyl)acetamido)methyl)imidazo[1,2-b]pyridazin-2-yl)(4,4-difluorocyclohexyl)methyl)isoxazole-4-carboxamide], the pIC50 was 7.43 in experiment [1] and 7.11 in experiment [2] (Homo sapiens, Keratinocyte).
Taken in the same sequence, the figures for `CC(C)n1nccc1C(=O)N[C@H](c1cn2ncc([C@H](NC(=O)CC(C)C(F)(F)F)C3CC3)cc2n1)C1CCC(F)(F)CC1` (single isomer, unassigned) [Example 121, N—((S)-(7-((R)-Cyclopropyl((R*)-4,4,4-trifluoro-3-methylbutanamido)methyl)imidazo[1,2-b]pyridazin-2-yl)(4,4-difluorocyclohexyl)methyl)-1-isopropyl-1H-pyrazole-5-carboxamide] were 7.06 and 6.96.
For `Cc1nonc1C(=O)N[C@H](c1cn2ncc([C@H](NC(=O)C34CC(F)(C3)C4)C3CC3)cc2n1)C1CCC(F)(F)CC1` [Example 269, N—((S)-(7-((R)-Cyclopropyl(3-fluorobicyclo[1.1.1]pentane-1-carboxamido)methyl)imidazo[1,2-b]pyridazin-2-yl)(4,4-difluorocyclohexyl)methyl)-4-methyl-1,2,5-oxadiazole-3-carboxamide], the pIC50 in experiment [1] is 5.70; in experiment [2] (Homo sapiens, Keratinocyte), 4.70.
As to `O=C(CCC(F)(F)F)N[C@@H](c1cnn2cc([C@@H](NC(=O)c3cccc(C4CC4)c3)C3CCC(F)(F)CC3)nc2c1)C1CC1` [Example 166, 3-Cyclopropyl-N—((S)-(7-((R)-cyclopropyl(4,4,4-trifluorobutanamido)methyl)imidazo[1,2-b]pyridazin-2-yl)(4,4-difluorocyclohexyl)methyl)benzamide], the pIC50 was 7.24 in experiment [1] and 6.89 in experiment [2] (Homo sapiens, Keratinocyte).
In the same order, the values of `Cn1nccc1C(=O)N[C@H](c1cn2ncc(C(NC(=O)CC3CC(F)(F)C3)C3CC3)cc2n1)C1CCC(F)(F)CC1` (single isomer, unassigned) [Example 24, N—((S)-(7-((R*)-Cyclopropyl(2-(3,3-difluorocyclobutyl)acetamido)methyl)imidazo[1,2-b]pyridazin-2-yl)(4,4-difluorocyclohexyl)methyl)-1-methyl-1H-pyrazole-5-carboxamide] are 7.20 and 7.08.
As for `Cc1nsnc1C(=O)N[C@H](c1cn2ncc(C(NC(=O)CCC(F)(F)F)C3CC3)cc2n1)C1CCC(F)(F)CC1` (single isomer, unassigned) [Example 467, N—((S)-(7-((R*)-Cyclopropyl(4,4,4-trifluorobutanamido)methyl)imidazo[1,2-b]pyridazin-2-yl)(4,4-difluorocyclohexyl)methyl)-4-methyl-1,2,5-thiadiazole-3-carboxamide], the negative-log IC50 (pIC50) is 7.24 in experiment [1] and 6.44 in experiment [2] (Homo sapiens, Keratinocyte).
Taken in the same sequence, the figures for `Cc1cccc(C(=O)N[C@H](c2cn3ncc([C@H](NC(=O)CCC(F)(F)F)C4CC4)cc3n2)C2CCC(F)(F)CC2)n1` [Example 224, N—((S)-(7-((R)-Cyclopropyl(4,4,4-trifluorobutanamido)methyl)imidazo[1,2-b]pyridazin-2-yl)(4,4-difluorocyclohexyl)methyl)-6-methylpicolinamide] were 5.77 and < 4.70.
As to `Cc1nonc1C(=O)N[C@H](c1cn2ncc([C@H](NC(=O)C(F)(F)CC3CC3)C3CC3)cc2n1)C1CCC(F)(F)CC1` [Example 339, N—((S)-(7-((R)-Cyclopropyl(3-cyclopropyl-2,2-difluoropropanamido)methyl)imidazo[1,2-b]pyridazin-2-yl)(4,4-difluorocyclohexyl)methyl)-4-methyl-1,2,5-oxadiazole-3-carboxamide], the negative-log IC50 (pIC50) in experiment [1] was 7.11; in experiment [2] (Homo sapiens, Keratinocyte), 6.72.
In the same order, the values of `O=C(CC1CC(F)(F)C1)NC(c1cnn2cc([C@@H](NC(=O)c3cnn(CC4CC4)n3)C3CCC(F)(F)CC3)nc2c1)C1CC1` (single isomer, unassigned) [Example 26, N—((S)-(7-((R*)-Cyclopropyl(2-(3,3-difluorocyclobutyl)acetamido)methyl)imidazo[1,2-b]pyridazin-2-yl)(4,4-difluorocyclohexyl)methyl)-2-(cyclopropylmethyl)-2H-1,2,3-triazole-4-carboxamide] are 7.17 and 6.64.
Consider `[2H]C([2H])([2H])C([2H])([2H])n1nccc1C(=O)N[C@H](c1cn2ncc(C(COCC)NC(=O)CC3CC(F)(F)C3)cc2n1)C1CCC(F)(F)CC1` (single isomer, unassigned) [Example 531, N—((S)-(7-((S*)-1-(2-(3,3-Difluorocyclobutyl)acetamido)-2-ethoxyethyl)imidazo[1,2-b]pyridazin-2-yl)(4,4-difluorocyclohexyl)methyl)-1-(ethyl-d5)-1H-pyrazole-5-carboxamide], for which the negative-log IC50 (pIC50) was 6.66 in experiment [1] and 6.96 in experiment [2].
Consider `O=C(CCC(F)F)N[C@@H](c1cnn2cc([C@@H](NC(=O)c3nonc3OCC(F)F)C3CCC(F)(F)CC3)nc2c1)C1CC1` [Example 390, N—((S)-(7-((R)-Cyclopropyl(4,4-difluorobutanamido)methyl)imidazo[1,2-b]pyridazin-2-yl)(4,4-difluorocyclohexyl)methyl)-4-(2,2-difluoroethoxy)-1,2,5-oxadiazole-3-carboxamide], for which the pIC50 in experiment [1] was 7.07; in experiment [2] (Homo sapiens, Keratinocyte), 6.89.
In the same order, the values of `COc1nocc1C(=O)N[C@H](c1cn2ncc([C@H](NC(=O)CCC(F)(F)F)C3CC3)cc2n1)C1CCC(F)(F)CC1` [Example 239, N—((S)-(7-((R)-Cyclopropyl(4,4,4-trifluorobutanamido)methyl)imidazo[1,2-b]pyridazin-2-yl)(4,4-difluorocyclohexyl)methyl)-3-methoxyisoxazole-4-carboxamide] are 6.37 and 5.89.
`Cc1nonc1C(=O)N[C@H](c1cn2ncc([C@H](NC(=O)COC3CC(F)(F)C3)C3CC3)cc2n1)C1CCC(F)(F)CC1` [Example 308, N—((S)-(7-((R)-Cyclopropyl(2-(3,3-difluorocyclobutoxy)acetamido)methyl)imidazo[1,2-b]pyridazin-2-yl)(4,4-difluorocyclohexyl)methyl)-4-methyl-1,2,5-oxadiazole-3-carboxamide]: the pIC50 in experiment [1] is 6.70; in experiment [2] (Homo sapiens, Keratinocyte) it was 5.77.
Turning to `O=C(CCC(F)(F)F)N[C@@H](c1cnn2cc([C@@H](NC(=O)c3nnn(CC4CC4)c3C(F)(F)F)C3CCC(F)(F)CC3)nc2c1)C1CC1` [Example 108, N—((S)-(7-((R)-Cyclopropyl(4,4,4-trifluorobutanamido)methyl)imidazo[1,2-b]pyridazin-2-yl)(4,4-difluorocyclohexyl)methyl)-1-(cyclopropylmethyl)-5-(trifluoromethyl)-1H-1,2,3-triazole-4-carboxamide], the pIC50 is 6.04 in experiment [1] and < 4.70 in experiment [2] (Homo sapiens, Keratinocyte).
